Measured values from US10537567B2, “Kinase inhibitors for treatment of disease” (BioAxone BioSciences, Inc., priority 2017, dated 2020).
Where two headings read alike, the source gives them in different places.

Legend:
ROCK1 [1] = target: T1, ROCK1 (Homo sapiens, UniProt Q13464); test: DiscoverX kinome screen; assay type: binding; parameters: are incubated with DNA-tagged kinase domains tagged; DNA tag; purchased DiscoverX; conditions: 10,000 nM API
Experimental: (§1) A 468-target kinome screen and a safety screen were carried out to examine the off-target profiles of different kinase inhibitors (DiscoverX, Freemont, Calif.). The kinome screen is a binding assay where API interference of kinase domain/substrate binding is assessed as percent of control. Less than 10% binding (or >90% binding inhibition) is most biologically relevant and considered as a ‘hit’. BA-2017 only had 7 off-target hits compared to BA-1049 and Netarsudil, which both had 11 hits (Table 1) (Studirvant et al. 2016 Bioorg Med Chem Lett. 26(10):2475-2480). […] Published data for Netarsudil were with 200 times less API. […] The NET activity likely helps to decrease IOP but might increase hyperemia, while the SERT activity might have long-term safety consequences (Costagliola et al. 2004 CNS drugs 18(8): p. 475-484).
(§2) In the kinome screen BA-2017 had fewer off-target hits (Table 1) than BA-1049. […] An interesting hit from the kinome screen was on Abl (Table 1), an oncogene that also regulates many cellular activities, including vascular leakage.
Target sequence in this assay (Q13464 76-338 limits assumed): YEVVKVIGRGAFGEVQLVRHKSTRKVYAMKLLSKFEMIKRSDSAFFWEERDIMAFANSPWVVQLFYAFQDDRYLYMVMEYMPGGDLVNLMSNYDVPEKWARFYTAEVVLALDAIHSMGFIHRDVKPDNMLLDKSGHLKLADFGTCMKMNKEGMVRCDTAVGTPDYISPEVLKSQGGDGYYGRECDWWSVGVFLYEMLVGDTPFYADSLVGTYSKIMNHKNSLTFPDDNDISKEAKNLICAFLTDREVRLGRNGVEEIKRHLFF

ROCK2 [2] = target: T2, ROCK2 (Homo sapiens, UniProt O75116); test: DiscoverX kinome screen; assay type: binding; parameters: are incubated with DNA-tagged kinase domains tagged; DNA tag; purchased DiscoverX; conditions: 10,000 nM API
Experimental: as §1, §2
Target sequence in this assay (O75116 92-354 limits assumed): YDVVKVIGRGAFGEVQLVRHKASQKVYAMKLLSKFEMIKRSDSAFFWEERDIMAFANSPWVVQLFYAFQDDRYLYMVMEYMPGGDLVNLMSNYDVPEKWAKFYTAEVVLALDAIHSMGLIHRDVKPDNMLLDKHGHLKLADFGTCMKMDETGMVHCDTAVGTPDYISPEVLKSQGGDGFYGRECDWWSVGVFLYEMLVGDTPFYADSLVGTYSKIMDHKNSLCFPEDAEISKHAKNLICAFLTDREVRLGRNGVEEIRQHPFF

human TM cells = test: Fibronectin immunoblot in TGFβ-stimulated TM cells; assay type: cell-based; conditions: 2.5 ng/ml TGFβ, 0-100 μM, 24 hours
[3] = tested on: GPCRs, transporters, ion channels, nuclear receptors, non-kinase enzymes; test: Safety screen of 88 targets; parameters: species or system human; conditions: agonistic or antagonistic
Excerpt: These targets include GPCRs, transporters, ion channels, nuclear receptors, non-kinase enzymes.

[4] = Total body irradiation (TBI) mouse model, GI histopathology; assay type: in vivo, mice; conditions: dosing for three days, 3 days after irradiation
Experimental: At day 0, TBI is carried out at a lethal dose of 8.0 Gy (Harlan mice) or 9.0 Gy (Coats mice)-doses that are expected to cause death in about 90% of animals within 30 days. […] Mice are monitored for survival up to day 30. During this period, mice were deprived of all supportive care, including antibiotics, to increase the stringency of the survival protocol. Survival is assessed with Kaplan-Meir curves. […] Mice are euthanized at 3 days and GI tissue is paraffin-embedded, sectioned and immunolabeled with rabbit anti-mouse leucine-rich-repeat-containing G-protein-coupled receptor 5 (LGR5), a GI stem cell marker that is expressed upon GI injury.

ROCK1 [5] = target: T1, ROCK1; test: Direct filter-binding radiometric kinase assay (Eurofins) at Km ATP; assay type: biochemical; parameters: purchased Eurofins Testing (Dundee, Scotland, UK)
Experimental: (§3) ROCK1 and ROCK2 IC50 determinations were made using ATP concentrations at the Km ATP of 70 μM and 15 μM for ROCK1 and ROCK2, respectively.
(§4) For the data shown in Table 4, IC50 inhibition curves were performed at the respective Km for ATP for both ROCK1 and ROCK2. Performing these assays at the Km of ATP gives a better representation of the inhibitory activity. Other comparisons where differing kinases are tested at a single ATP concentration can potentially misrepresent the comparative efficacy since enzyme inhibitory activity tested below the Km for ATP of the enzyme, produces a circumstance where the enzyme is actually not constantly bound with ATP and the reaction velocity becomes sub-optimal.
Target sequence in this assay (Q13464 whole entry, the tested form may be a part): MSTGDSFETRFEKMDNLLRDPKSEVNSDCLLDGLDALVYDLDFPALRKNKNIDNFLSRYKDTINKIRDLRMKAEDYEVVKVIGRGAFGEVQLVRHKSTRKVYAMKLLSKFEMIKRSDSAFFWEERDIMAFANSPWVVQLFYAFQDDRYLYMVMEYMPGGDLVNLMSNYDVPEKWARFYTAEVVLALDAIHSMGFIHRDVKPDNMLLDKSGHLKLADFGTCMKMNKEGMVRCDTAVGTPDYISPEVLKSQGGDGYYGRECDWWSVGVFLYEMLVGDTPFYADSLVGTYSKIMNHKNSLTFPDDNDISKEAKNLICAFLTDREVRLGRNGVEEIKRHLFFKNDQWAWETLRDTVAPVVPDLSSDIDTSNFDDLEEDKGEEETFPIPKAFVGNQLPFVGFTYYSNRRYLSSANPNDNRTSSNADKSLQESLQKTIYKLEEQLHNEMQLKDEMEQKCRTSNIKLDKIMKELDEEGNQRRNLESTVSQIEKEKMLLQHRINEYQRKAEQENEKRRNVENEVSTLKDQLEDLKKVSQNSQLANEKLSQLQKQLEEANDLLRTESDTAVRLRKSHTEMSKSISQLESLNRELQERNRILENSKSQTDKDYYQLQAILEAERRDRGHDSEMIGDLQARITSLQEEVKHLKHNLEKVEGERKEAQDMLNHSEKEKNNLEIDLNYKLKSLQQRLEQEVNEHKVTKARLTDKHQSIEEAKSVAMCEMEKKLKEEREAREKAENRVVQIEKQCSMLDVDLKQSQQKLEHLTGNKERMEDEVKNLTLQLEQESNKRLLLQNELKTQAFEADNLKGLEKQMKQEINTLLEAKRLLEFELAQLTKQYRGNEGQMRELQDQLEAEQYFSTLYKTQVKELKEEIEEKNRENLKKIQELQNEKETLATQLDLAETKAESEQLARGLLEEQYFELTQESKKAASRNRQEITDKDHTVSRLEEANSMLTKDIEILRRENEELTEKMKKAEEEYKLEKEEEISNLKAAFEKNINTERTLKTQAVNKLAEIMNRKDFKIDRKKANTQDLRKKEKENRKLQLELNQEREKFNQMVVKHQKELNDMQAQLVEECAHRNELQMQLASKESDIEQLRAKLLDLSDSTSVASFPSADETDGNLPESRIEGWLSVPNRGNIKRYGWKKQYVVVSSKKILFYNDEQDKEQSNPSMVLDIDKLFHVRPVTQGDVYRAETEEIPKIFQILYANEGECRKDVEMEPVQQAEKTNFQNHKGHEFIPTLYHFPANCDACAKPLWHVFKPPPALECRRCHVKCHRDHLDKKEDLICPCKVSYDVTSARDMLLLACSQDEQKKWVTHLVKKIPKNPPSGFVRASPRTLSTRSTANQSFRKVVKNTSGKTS

ROCK2 [6] = target: T2, ROCK2; test: as above; assay type: biochemical; parameters: purchased Eurofins Testing (Dundee, Scotland, UK); conditions: for ROCK1/ROCK2 (fold difference): IC50 at respective Km ATP
Experimental: as §3, §4
Target sequence in this assay (O75116 whole entry, the tested form may be a part): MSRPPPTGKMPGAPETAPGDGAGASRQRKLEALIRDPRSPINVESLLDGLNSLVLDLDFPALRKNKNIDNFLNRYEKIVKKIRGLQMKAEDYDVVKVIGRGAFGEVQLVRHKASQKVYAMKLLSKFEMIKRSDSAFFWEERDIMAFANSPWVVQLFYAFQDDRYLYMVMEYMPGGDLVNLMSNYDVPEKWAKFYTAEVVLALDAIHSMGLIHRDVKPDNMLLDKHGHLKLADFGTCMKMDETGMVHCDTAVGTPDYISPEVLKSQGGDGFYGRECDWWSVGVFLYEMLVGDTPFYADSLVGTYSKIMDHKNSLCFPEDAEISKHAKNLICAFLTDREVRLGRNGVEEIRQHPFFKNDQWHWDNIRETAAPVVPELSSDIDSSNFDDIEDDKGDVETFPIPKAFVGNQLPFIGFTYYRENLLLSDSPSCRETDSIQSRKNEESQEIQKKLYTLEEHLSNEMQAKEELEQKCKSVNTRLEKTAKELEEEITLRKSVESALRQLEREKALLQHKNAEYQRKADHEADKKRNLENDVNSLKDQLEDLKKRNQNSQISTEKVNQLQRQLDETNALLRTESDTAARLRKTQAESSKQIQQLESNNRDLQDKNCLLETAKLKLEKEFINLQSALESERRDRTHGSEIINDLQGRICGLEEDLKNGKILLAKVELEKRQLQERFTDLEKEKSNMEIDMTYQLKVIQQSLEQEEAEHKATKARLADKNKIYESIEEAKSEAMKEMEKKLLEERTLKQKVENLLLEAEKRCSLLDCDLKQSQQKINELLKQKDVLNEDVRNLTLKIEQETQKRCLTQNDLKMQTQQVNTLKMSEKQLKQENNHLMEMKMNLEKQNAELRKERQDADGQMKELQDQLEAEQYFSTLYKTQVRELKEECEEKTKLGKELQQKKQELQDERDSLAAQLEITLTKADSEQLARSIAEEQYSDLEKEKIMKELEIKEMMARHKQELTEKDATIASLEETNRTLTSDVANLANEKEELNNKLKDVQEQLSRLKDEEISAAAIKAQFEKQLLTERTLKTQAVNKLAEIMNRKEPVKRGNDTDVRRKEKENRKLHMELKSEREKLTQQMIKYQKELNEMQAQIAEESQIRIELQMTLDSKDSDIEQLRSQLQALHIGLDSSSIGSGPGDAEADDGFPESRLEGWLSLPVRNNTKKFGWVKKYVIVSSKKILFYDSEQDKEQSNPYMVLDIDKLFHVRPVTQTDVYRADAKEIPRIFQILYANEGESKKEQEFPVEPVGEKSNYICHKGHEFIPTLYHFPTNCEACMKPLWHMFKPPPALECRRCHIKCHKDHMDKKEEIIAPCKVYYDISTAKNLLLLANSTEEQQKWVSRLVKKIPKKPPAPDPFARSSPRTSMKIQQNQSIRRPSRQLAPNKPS

PKC Δ = target: T3, PKC Δ (Homo sapiens, UniProt Q05655); test: DiscoverX kinome screen; assay type: binding; conditions: 10,000 nM API
T3 construct: are incubated with DNA-tagged kinase domains tagged; DNA tag; purchased DiscoverX
Experimental: as §1, §2

[7] = tested on: midbrain dopaminergic neurons; test: MPTP mouse model; assay type: in vivo, C57BL/6 mice; conditions: 10 or 100 mg/kg per day in drinking water, 14 days
Excerpt: Previous studies have shown that this compound causes the overactivation of the c-Abl non-receptor tyrosine kinase in these neurons, which then phosphorylates the Parkin E3 ubiquitin ligase leading to its inactivation (Ko et al., Proc. Nat. Acad. Sci. USA; 2010; 107:16691). Additionally, this neurotoxin is also known to cause the activation of Rho kinase (ROCK) in the brain when administered to animals (Rodriguez-Perez et al., Neurobiol. Dis., 2013; 58:209).
Different cohorts of adult C57BL/6 mice (Charles River; Wilmington, Mass.) (8 to 10 per group) receive intraperitoneal injections of either vehicle or 30 mg/kg of MPTP (Sigma; St. Louis, Mo.) dissolved in 0.9% saline for 5 consecutive days. This sub-acute/chronic treatment regimen typically leads to the death of 40 to 50% of midbrain dopaminergic neurons of the substantia nigra within 1 to 2 weeks (Meredith and Rademacher; J Parkinsons Dis.; 2011; 1(1):19).
The cohorts are carried forward for 14 days. On the final 2 days of the treatment paradigm, mouse cohorts are subjected to behavioral testing using the accelerated rotarod on one day or grid-walking test on the other day. At completion of the final behavioral test, animals are deeply anesthetized and then perfused transcardially with 4% paraformaldehyde in phosphate buffer. Brains are removed from the craniums and post-fixed for 1-2 hours. The brains are then immersed in 30% sucrose for cryo-protection. Whole coronal sections (20-25 μm thick) through the midbrain region containing the substantia nigra are obtained for each animal and thaw mounted onto SuperFost Plus slides (Thermo-Fisher). Individual sections are reacted with rabbit anti-tyrosine hydroxylase (TH) antibody (EMD-Millipore) overnight in PBS containing 0.05% Triton X-100 and 10% normal goat serum. After washing in PBS/Triton-X-100 multiple times, sections are reacted with […] goat anti-rabbit secondary antibody. Following another round of washing, the slides are reacted with Vecta Stain Elite ABC kit for DAB-enhanced peroxidase detection (Vector Labs; Burlingame, Calif.). Following peroxidase reaction, the sections are subjected to Nissl staining to label all cell types as a counterstain. The sections are then coverslipped in permanent mounting media.
Sections are examined by visible microscopy and photographic images captured. The number of TH positive neurons are estimated in the series of images by unbiased stereological analysis using Stereo Investigator. Numbers of TH-positive neurons per area of the substantia nigra are determined and statistical analyses performed to compare between, control untreated, MPTP/no treatment, MPTP/inhibitor treatments.

T3 sequence (Q05655 349-603 limits assumed, stated change not applied): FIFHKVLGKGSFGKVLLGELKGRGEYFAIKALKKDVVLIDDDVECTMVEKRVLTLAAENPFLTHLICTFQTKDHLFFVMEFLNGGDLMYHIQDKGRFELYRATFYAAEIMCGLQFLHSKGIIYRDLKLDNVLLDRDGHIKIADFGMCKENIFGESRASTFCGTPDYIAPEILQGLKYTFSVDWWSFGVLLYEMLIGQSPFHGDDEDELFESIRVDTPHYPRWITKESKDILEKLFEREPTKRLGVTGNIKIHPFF

Row | IC50 (ROCK1 [5]) [µM] | IC50 (ROCK2 [6]) [µM] | SMILES | Kinome Screen % inhibition ROCK1 (ROCK1 [1]) [%] | Kinome Screen % inhibition ROCK2 (ROCK2 [2]) [%] | Fibronectin levels (human TM cells) | Off-target hits in safety screen [3] | Radiation-induced jejunal damage (LGR5 expression) [4] | IC50 (ROCK1 [5]; ATP at Km, 70 μM, * = higher purity BA-1076) [µM] | ROCK1/ROCK2 (fold difference) (ROCK2 [6]) | ROCK1/ROCK2 (fold difference) (ROCK2 [6]; listed as BA-1076*) | Kinome Screen % inhibition PKC Δ (PKC Δ) [%] | Cell loss in substantia nigra [7] | Motor function in behavioral testing [7]
1 |  |  | C[C@H](N)C1CCN(S(=O)(=O)c2cccc3cnccc23)CC1 [BA-1076] | >99 | >99 | Fibronectin levels decreased dose-dependently | no significant off target hits were detected | mitigated radiation-induced jejunal damage | 19.6 | 55.5 | 60.8 | <70 | prevent a significant percentage of the cell loss | improved motor function
2 | 23.6 | 0.491 | C[C@H](N)C1CCN(S(=O)(=O)c2cccc3c(=O)[nH]ccc23)CC1 [BA-2057] | >98 | >96 | more potent in decreasing fibronectin deposition than BA-1076 | no significant off target hits were detected | mitigated radiation-induced jejunal damage |  | 48.0 |  | <70 | prevent a significant percentage of the cell loss | improved motor function
